What was measured:
barnyardgrass [1] = assay: Test B flooded paddy test; assay type: in vivo, Echinochloa crus-galli; conditions: 1000 g ai/ha, scale 0 to 100 (0 no effect, 100 complete control)
In short: (§1)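 Read-out: visual comparison with controls, scored 0 to 100, where 100 means complete control and 0 no effect. Formulated chemicals were applied postemergence to plants 2–18 cm tall (1- to 4-leaf), or to flooded-paddy plants at the 2-leaf stage, then held 13 to 15 days under glass.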

large crabgrass = assay: Test B pre-/postemergence herbicide test; assay type: in vivo, Digitaria sanguinalis; conditions: for Plant response rating (0 to 100 scale), Crabgrass, Large: 0 is no effect; for Plant response rating (0 to 100 scale), Crabgrass, Large / Plant response rating, Crabgrass, Large: preemergence; for Crabgrass, Large plant response rating: postemergence; for Plant response rating, Crabgrass, Large: 0 = no effect, 100 = complete control
In short: (§2)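 Plants compared with untreated controls 13–15 days post-treatment and given a visual 0–100 injury score. Applications: preemergence to seeds; postemergence at 1- to 4-leaf (2–18 cm); paddy species flooded, 2-leaf stage. Vehicle non-phytotoxic, surfactant included.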

wild oat = assay: Test B postemergence herbicide test; assay type: in vivo, Avena fatua; conditions: postemergence
In short: (§3)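 Greenhouse test; postemergence application to plants at 1–4 leaves (2–18 cm); paddy species at 2 leaves; evaluated visually vs controls at 13–15 days; scale 0–100 (100 = complete control).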

pigweed = assay: Test B pre-/postemergence herbicide test; assay type: in vivo, Amaranthus retroflexus; conditions: for Plant response rating (0 to 100 scale), Pigweed: 0 is no effect; for Plant response rating (0 to 100 scale), Pigweed / Plant response rating, Pigweed: preemergence; for Pigweed plant response rating: postemergence; for Plant response rating, Pigweed: 0 = no effect, 100 = complete control
In short: as §2

morningglory = assay: Test B pre-/postemergence herbicide test; assay type: in vivo, Ipomoea coccinea; conditions: for Plant response rating (0 to 100 scale), Morningglory: 0 is no effect; for Plant response rating (0 to 100 scale), Morningglory / Plant response rating, Morningglory: preemergence; for Morningglory plant response rating: postemergence; for Plant response rating, Morningglory: 0 = no effect, 100 = complete control
In short: (§4)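 Pre: seeds sown, then sprayed. Post: 1–4-leaf plants (2–18 cm) sprayed at the same time. Paddy: flooded, treated at 2-leaf stage. Formulation: non-phytotoxic solvent with surfactant. Greenhouse 13–15 days; visual 0–100 score relative to controls.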

velvetleaf = assay: Test B pre-/postemergence herbicide test; assay type: in vivo, Abutilon theophrasti; conditions: for Plant response rating (0 to 100 scale), Velvetleaf: 0 is no effect, preemergence; for Velvetleaf plant response rating: postemergence
In short: as §2

barnyardgrass [2] = assay: Test B pre-/postemergence herbicide test; assay type: in vivo, Echinochloa crus-galli; conditions: for Plant response rating (0 to 100 scale), Barnyardgrass: 0 is no effect; for Plant response rating (0 to 100 scale), Barnyardgrass / Plant response rating, Barnyardgrass: preemergence; for Barnyardgrass plant response rating: postemergence; for Plant response rating, Barnyardgrass: 0 = no effect, 100 = complete control
In short: as §4

blackgrass = assay: Test B postemergence herbicide test; assay type: in vivo, Alopecurus myosuroides; conditions: postemergence
In short: as §1

cocklebur = assay: Test B pre-/postemergence herbicide test; assay type: in vivo, Xanthium strumarium; conditions: for Plant response rating (0 to 100 scale), Cocklebur: 0 is no effect; for Plant response rating (0 to 100 scale), Cocklebur / Plant response rating, Cocklebur: preemergence; for Cocklebur plant response rating: postemergence; for Plant response rating, Cocklebur: 0 = no effect, 100 = complete control
In short: as §4

rice = assay: Test B flooded paddy test; assay type: in vivo, Oryza sativa; conditions: 1000 g ai/ha, scale 0 to 100 (0 no effect, 100 complete control)
In short: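 Formulated test chemicals went onto postemergence plants measuring 2 to 18 cm, at one to four leaves. For the paddy assay, species had reached two leaves. Scoring took place 13–15 days later by eye, relative to untreated plants, using 0 for no effect up to 100 for full control.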

Surinam grass = assay: Test B pre-/postemergence herbicide test; assay type: in vivo, Urochloa decumbens; conditions: for Plant response rating (0 to 100 scale), Surinam Grass: 0 is no effect; for Plant response rating (0 to 100 scale), Surinam Grass / Plant response rating, Surinam Grass: preemergence; for Surinam Grass plant response rating: postemergence; for Plant response rating, Surinam Grass: 0 = no effect, 100 = complete control
In short: as §2

[3] = test system: small flower umbrella sedge; assay: Test B flooded paddy test; assay type: in vivo, Cyperus difformis; conditions: 1000 g ai/ha, scale 0 to 100 (0 no effect, 100 complete control)
In short: as §1

giant foxtail = assay: Test B pre-/postemergence herbicide test; assay type: in vivo, Setaria faberi; conditions: for Plant response rating (0 to 100 scale), Foxtail, Giant: 0 is no effect; for Plant response rating (0 to 100 scale), Foxtail, Giant / Plant response rating, Foxtail, Giant: preemergence; for Foxtail, Giant plant response rating: postemergence; for Plant response rating, Foxtail, Giant: 0 = no effect, 100 = complete control
In short: as §2

ducksalad = assay: Test B flooded paddy test; assay type: in vivo, Heteranthera limosa; conditions: 1000 g ai/ha, scale 0 to 100 (0 no effect, 100 complete control)
In short: as §1

wheat = assay: Test B postemergence herbicide test; assay type: in vivo, Triticum aestivum; design: key to Wheat plant response rating: 0 = no effect, 100 = complete control
In short: as §3

corn = assay: Test B pre-/postemergence herbicide test; assay type: in vivo, Zea mays; conditions: for Plant response rating (0 to 100 scale), Corn: 0 is no effect; for Plant response rating (0 to 100 scale), Corn / Plant response rating, Corn: preemergence; for Corn plant response rating: postemergence; for Plant response rating, Corn: 0 = no effect, 100 = complete control
In short: as §2

lambsquarters = assay: Test B pre-/postemergence herbicide test; assay type: in vivo, Chenopodium album; conditions: for Plant response rating (0 to 100 scale), Lambsquarters: 0 is no effect; for Plant response rating (0 to 100 scale), Lambsquarters / Plant response rating, Lambsquarters: preemergence; for Lambsquarters plant response rating: postemergence; for Plant response rating, Lambsquarters: 0 = no effect, 100 = complete control
In short: as §2

[4] = 125 g ai/ha, 100 is complete control
[5] = 125 g ai/ha, visual rating, scale 0 (no effect) to 100 (complete control)
[6] = 500 g ai/ha, scale 0 to 100, 0 is no effect, 100 is complete control
[7] = 125 g ai/ha, visual rating, scale 0 (no effect) to 100 (complete control), postemergence
[8] = postemergence, 500 g ai/ha, scale 0 to 100, 0 is no effect, 100 is complete control

CCn1nc(C(C)(C)C)cc1C(=O)Nc1cc(OCCF)ccc1F [Compound 350]
0: Barnyardgrass plant response rating (barnyardgrass [1]) | Plant response rating (0 to 100 scale), Crabgrass, Large (large crabgrass; [4]) | Crabgrass, Large plant response rating (large crabgrass; [5]) | Plant response rating, Crabgrass, Large (large crabgrass; 500 g ai/ha, visual rating) | Oat, Wild plant response rating (wild oat; [5]) | Oat, Wild plant response rating (wild oat; [6]) | Plant response rating (0 to 100 scale), Pigweed (pigweed; [4]) | Pigweed plant response rating (pigweed; [5]) | Plant response rating, Pigweed (pigweed; 500 g ai/ha, visual rating) | Plant response rating (0 to 100 scale), Morningglory (morningglory; [4]) | Morningglory plant response rating (morningglory; [5]) | Plant response rating, Morningglory (morningglory; 500 g ai/ha, visual rating) | Plant response rating (0 to 100 scale), Velvetleaf (velvetleaf; [4]) | Velvetleaf plant response rating (velvetleaf; [5]) | Plant response rating (0 to 100 scale), Barnyardgrass (barnyardgrass [2]; [4]) | Barnyardgrass plant response rating (barnyardgrass [2]; [5]) | Plant response rating, Barnyardgrass (barnyardgrass [2]; 500 g ai/ha, visual rating) | Barnyardgrass plant response rating (barnyardgrass [2]; [6]) | Blackgrass plant response rating (blackgrass; [5]) | Blackgrass plant response rating (blackgrass; [6]) | Plant response rating (0 to 100 scale), Cocklebur (cocklebur; [4]) | Cocklebur plant response rating (cocklebur; [5]) | Plant response rating, Cocklebur (cocklebur; 500 g ai/ha, visual rating) | Rice plant response rating (rice) | Plant response rating (0 to 100 scale), Surinam Grass (Surinam grass; [4]) | Surinam Grass plant response rating (Surinam grass; [5]) | Plant response rating, Surinam Grass (Surinam grass; 500 g ai/ha, visual rating) | Sedge, Umbrella plant response rating [3] | Plant response rating (0 to 100 scale), Foxtail, Giant (giant foxtail; [4]) | Foxtail, Giant plant response rating (giant foxtail; [5]) | Plant response rating, Foxtail, Giant (giant foxtail; 500 g ai/ha, visual rating) | Ducksalad plant response rating (ducksalad) | Wheat plant response rating (wheat; [7]) | Wheat plant response rating (wheat; [8]) | Plant response rating (0 to 100 scale), Corn (corn; [4]) | Corn plant response rating (corn; [5]) | Plant response rating, Corn (corn; 500 g ai/ha, visual rating) | Plant response rating (0 to 100 scale), Lambsquarters (lambsquarters; [4]) | Lambsquarters plant response rating (lambsquarters; [5]) | Plant response rating, Lambsquarters (lambsquarters; 500 g ai/ha, visual rating)
30: Foxtail, Giant plant response rating (giant foxtail; [6])
10: Crabgrass, Large plant response rating (large crabgrass; [6]) | Velvetleaf plant response rating (velvetleaf; [6]) | Surinam Grass plant response rating (Surinam grass; [6]) | Lambsquarters plant response rating (lambsquarters; [6])
20: Cocklebur plant response rating (cocklebur; [6]) | Corn plant response rating (corn; [6])
60: Pigweed plant response rating (pigweed; [6])

CCc1nn(C(C)(C)C)nc1C(=O)Nc1cc(C(=O)N(C)C)ccc1F [Compound 361]
60: Plant response rating, Morningglory (morningglory; 500 g ai/ha, visual rating)
30: Velvetleaf plant response rating (velvetleaf; [6]) | Foxtail, Giant plant response rating (giant foxtail; [6]) | Plant response rating (0 to 100 scale), Corn (corn; [4])
0: Oat, Wild plant response rating (wild oat; [5]) | Barnyardgrass plant response rating (barnyardgrass [2]; [5]) | Plant response rating (0 to 100 scale), Cocklebur (cocklebur; [4]) | Wheat plant response rating (wheat; [7]) | Wheat plant response rating (wheat; [8]) | Corn plant response rating (corn; [5]) | Corn plant response rating (corn; [6])
10: Crabgrass, Large plant response rating (large crabgrass; [5]) | Crabgrass, Large plant response rating (large crabgrass; [6]) | Plant response rating (0 to 100 scale), Morningglory (morningglory; [4]) | Morningglory plant response rating (morningglory; [5]) | Velvetleaf plant response rating (velvetleaf; [5]) | Barnyardgrass plant response rating (barnyardgrass [2]; [6]) | Blackgrass plant response rating (blackgrass; [5]) | Cocklebur plant response rating (cocklebur; [5]) | Surinam Grass plant response rating (Surinam grass; [5]) | Surinam Grass plant response rating (Surinam grass; [6])
20: Oat, Wild plant response rating (wild oat; [6]) | Pigweed plant response rating (pigweed; [5]) | Plant response rating (0 to 100 scale), Velvetleaf (velvetleaf; [4]) | Cocklebur plant response rating (cocklebur; [6]) | Foxtail, Giant plant response rating (giant foxtail; [5])
50: Plant response rating, Cocklebur (cocklebur; 500 g ai/ha, visual rating) | Plant response rating (0 to 100 scale), Surinam Grass (Surinam grass; [4]) | Plant response rating (0 to 100 scale), Foxtail, Giant (giant foxtail; [4])
40: Pigweed plant response rating (pigweed; [6]) | Blackgrass plant response rating (blackgrass; [6])
80: Barnyardgrass plant response rating (barnyardgrass [1]) | Plant response rating (0 to 100 scale), Crabgrass, Large (large crabgrass; [4]) | Plant response rating (0 to 100 scale), Pigweed (pigweed; [4]) | Morningglory plant response rating (morningglory; [6]) | Plant response rating (0 to 100 scale), Barnyardgrass (barnyardgrass [2]; [4]) | Plant response rating (0 to 100 scale), Lambsquarters (lambsquarters; [4])
90: Rice plant response rating (rice) | Plant response rating, Surinam Grass (Surinam grass; 500 g ai/ha, visual rating) | Sedge, Umbrella plant response rating [3] | Ducksalad plant response rating (ducksalad)
100: Plant response rating, Crabgrass, Large (large crabgrass; 500 g ai/ha, visual rating) | Plant response rating, Pigweed (pigweed; 500 g ai/ha, visual rating) | Plant response rating, Barnyardgrass (barnyardgrass [2]; 500 g ai/ha, visual rating) | Plant response rating, Foxtail, Giant (giant foxtail; 500 g ai/ha, visual rating) | Plant response rating, Lambsquarters (lambsquarters; 500 g ai/ha, visual rating)
70: Plant response rating, Corn (corn; 500 g ai/ha, visual rating) | Lambsquarters plant response rating (lambsquarters; [5]) | Lambsquarters plant response rating (lambsquarters; [6])

CCNC(=O)c1ccc(F)c(NC(=O)c2nn(C(C)(C)C)nc2CC)c1 [Compound 362]
50: Barnyardgrass plant response rating (barnyardgrass [1])
10: Morningglory plant response rating (morningglory; [5]) | Plant response rating (0 to 100 scale), Barnyardgrass (barnyardgrass [2]; [4]) | Blackgrass plant response rating (blackgrass; [5]) | Cocklebur plant response rating (cocklebur; [5]) | Plant response rating (0 to 100 scale), Surinam Grass (Surinam grass; [4]) | Surinam Grass plant response rating (Surinam grass; [5]) | Plant response rating (0 to 100 scale), Foxtail, Giant (giant foxtail; [4]) | Foxtail, Giant plant response rating (giant foxtail; [5]) | Foxtail, Giant plant response rating (giant foxtail; [6]) | Lambsquarters plant response rating (lambsquarters; [5])
90: Sedge, Umbrella plant response rating [3] | Ducksalad plant response rating (ducksalad)
30: Cocklebur plant response rating (cocklebur; [6]) | Wheat plant response rating (wheat; 500 g ai/ha, scale 0 to 100, 0 no effect, 100 complete control, preemergence)
20: Plant response rating (0 to 100 scale), Crabgrass, Large (large crabgrass; [4]) | Oat, Wild plant response rating (wild oat; [5]) | Pigweed plant response rating (pigweed; [5]) | Blackgrass plant response rating (blackgrass; [6])
0: Crabgrass, Large plant response rating (large crabgrass; [5]) | Crabgrass, Large plant response rating (large crabgrass; [6]) | Plant response rating (0 to 100 scale), Pigweed (pigweed; [4]) | Plant response rating (0 to 100 scale), Morningglory (morningglory; [4]) | Plant response rating (0 to 100 scale), Velvetleaf (velvetleaf; [4]) | Velvetleaf plant response rating (velvetleaf; [5]) | Barnyardgrass plant response rating (barnyardgrass [2]; [5]) | Barnyardgrass plant response rating (barnyardgrass [2]; [6]) | Plant response rating (0 to 100 scale), Cocklebur (cocklebur; [4]) | Wheat plant response rating (wheat; [7]) | Plant response rating (0 to 100 scale), Corn (corn; [4]) | Corn plant response rating (corn; [5]) | Corn plant response rating (corn; [6]) | Plant response rating (0 to 100 scale), Lambsquarters (lambsquarters; [4])
60: Rice plant response rating (rice)
